Measurements as given in patent US9828350B2, “5,6-dihydro-2H-[1,4]oxazin-3-yl-amine derivatives useful as inhibitors of beta-secretase (BACE)” (Janssen Pharmaceutica NV, priority 2010, dated 2017).

Experiments:
[1] = target: recombinant BACE1 protein (Homo sapiens, UniProt P56817); assay: Biochemical FRET based assay; settings: recombinant BACE1 1 μg/ml, 120 minutes at room temperature, pH 5.0; for IC50: read-out: Biochemical FRET based assay pIC50 (converted)
Text: Biochemical FRET Based Assay
This assay is a Fluorescence Resonance Energy Transfer Assay (FRET) based assay. The substrate for this assay is an APP derived 13 amino acids peptide that contains the ‘Swedish’ Lys-Met/Asn-Leu mutation of the amyloid precursor protein (APP) beta-secretase cleavage site. This substrate also contains two fluorophores: (7-methoxycoumarin-4-yl) acetic acid (Mca) is a fluorescent donor with excitation wavelength at 320 nm and emission at 405 nm and 2,4-Dinitrophenyl (Dnp) is a proprietary quencher acceptor. […] Upon cleavage by BACE1, the fluorophore Mca is separated from the quenching group Dnp, restoring the full fluorescence yield of the donor. The increase in fluorescence is linearly related to the rate of proteolysis.
Briefly in a 384-well format recombinant BACE1 protein in a final concentration of 1 μg/ml is incubated for 120 minutes at room temperature with […] substrate in incubation buffer (40 mM Citrate buffer pH 5.0, 0.04% PEG, 4% DMSO) in the absence or presence of compound. Next the amount of proteolysis is directly measured by fluorescence measurement at T=0 and T=120 (excitation at 320 nm and emission at 405 nm). Results are expressed in RFU (Relative Fluorescence Units), as difference between T120 and TO.

[2] = tested on: Abeta total; assay: Cellular αLisa assay in SKNBE2 cells, Abeta total; assay type: cell-based, human; settings: incubated for 18 hours; for IC50: Homo sapiens, SKNBE2, 18 h, read-out: Cellular αLisa assay in SKNBE2 cells Abetatotal pIC50 (converted)
Experimental: (§1) Cellular αLisa Assay in SKNBE2 Cells
(§2) In two αLisa assays the levels of Abeta total and Abeta 1-42 produced and secreted into the medium of human neuroblastoma SKNBE2 cells are quantified. The assay is based on the human neuroblastoma SKNBE2 expressing the wild type Amyloid Precursor Protein (hAPP695). The compounds are diluted and added to these cells, incubated for 18 hours and then measurements of Abeta 1-42 and Abeta total are taken. Abeta total and Abeta 1-42 are measured by sandwich αLisa. αLisa is a sandwich assay using biotinylated antibody AbN/25 attached to streptavidin coated beads and antibody Ab4G8 or cAb42/26 conjugated acceptor beads for the detection of Abeta total and Abeta 1-42 respectively. In the presence of Abeta total or Abeta 1-42, the beads come into close proximity. The excitation of the donor beads provokes the release of singlet oxygen molecules that trigger a cascade of energy transfer in the acceptor beads, resulting in light emission. Light emission is measured after 1 hour incubation (excitation at […] and emission at 615 nm).

[3] = tested on: Abeta 1-42; assay: Cellular αLisa assay in SKNBE2 cells, Abeta 1-42; assay type: cell-based, human; settings: incubated for 18 hours; for IC50: Homo sapiens, SKNBE2, 18 h, read-out: Cellular αLisa assay in SKNBE2 cells Abeta 42 pIC50 (converted)
Experimental: as §1, §2

Chain of recombinant BACE1 protein (P56817 46-501): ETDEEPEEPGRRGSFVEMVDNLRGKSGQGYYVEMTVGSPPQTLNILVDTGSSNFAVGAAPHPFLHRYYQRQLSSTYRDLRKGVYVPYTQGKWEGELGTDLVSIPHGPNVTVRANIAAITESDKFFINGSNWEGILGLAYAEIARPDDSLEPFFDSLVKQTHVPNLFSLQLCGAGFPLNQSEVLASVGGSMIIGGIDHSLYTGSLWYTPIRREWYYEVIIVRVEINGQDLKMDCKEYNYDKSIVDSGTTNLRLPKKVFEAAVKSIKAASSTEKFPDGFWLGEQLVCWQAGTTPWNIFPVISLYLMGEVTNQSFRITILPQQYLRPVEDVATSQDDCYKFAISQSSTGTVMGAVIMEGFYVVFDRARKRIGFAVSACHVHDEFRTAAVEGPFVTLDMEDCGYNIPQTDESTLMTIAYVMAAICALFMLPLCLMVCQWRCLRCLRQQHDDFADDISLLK

Row | SMILES | IC50 [1] [µM] | IC50 [2] [µM] | IC50 [3] [µM] | Biochemical FRET based assay pIC50 [1] | Cellular αLisa assay in SKNBE2 cells Abetatotal pIC50 [2] | Cellular αLisa assay in SKNBE2 cells Abeta 42 pIC50 [3]
1 | CCC1(c2cc(-c3cncc(C#N)c3)ccc2F)N=C(N)COC1C(F)(F)F (stereo not drawn) [Compound 310] | 3.31 | 0.617 | 0.776 |  |  | 
2 | N#Cc1ccc(C(=O)Nc2cccc(C3(C4CC4)N=C(N)COC3C(F)(F)F)c2)nc1 (stereo not drawn) [Compound 226] |  |  |  | 6.86 | 7.47 | 7.41
3 | CC1(c2cccc(NC(=O)c3ccc(C#N)cn3)c2)COCC(N)=N1 (racemic) [Compound 64] |  |  |  | 6.41 | 7.37 | 7.36
4 | COc1cncc(-c2cccc(C3(C)N=C(N)COC3C(F)(F)F)c2)c1 (single isomer, unassigned) [Compound 104] | 9.33 |  |  |  | 5.82 | 5.8
5 | C[C@@]1(c2cccc(-c3cncnc3)c2)CO[C@@](C)(C(F)(F)F)C(N)=N1 (racemic) [Compound 161, trans-rac-2,5-dimethyl-5-(3-pyrimidin-5-ylphenyl)-2-(trifluoromethyl)-5,6-dihydro-2H-1,4-oxazin-3-amine] |  |  |  | 4.53 | <5 | <5
6 | CC1(c2cc(-c3cncnc3)ccc2F)N=C(N)COC1C(F)(F)F (single isomer, unassigned) [Compound 267] | > 30.2 |  |  |  | <5 | 5.15
7 | COc1cnc(C(=O)Nc2cccc(C3(C)N=C(N)COC3F)c2)cn1 (single isomer, unassigned) [Compound 132] | 1.1 |  |  |  | 6.38 | 6.35
8 | Cc1cc(Br)cnc1C(=O)Nc1cccc([C@@]2(C3CC3)N=C(N)CO[C@@H]2F)c1 [Compound 313] | 0.0166 | 0.0135 | 0.0178 |  |  | 
9 | C[C@@]1(c2cccc(-c3cncnc3)c2)COC2(CC2)C(N)=N1 [Compound 74] | 4.17 | 0.204 | 0.195 |  |  | 
10 | CC1(c2cccc(-c3cncnc3)c2)N=C(N)COC1F (single isomer, unassigned) [Compound 95] | 1.41 |  |  |  | 6.5 | 6.48
11 | Cc1ccc(C(=O)Nc2cccc(C3(C)N=C(N)COC3(F)C(F)(F)F)c2)nc1 (single isomer, unassigned) [Compound 192] | > 30.2 |  |  |  | <5 | <5
12 | COc1cncc(-c2ccc(F)c(C3(C)COCC(N)=N3)c2)c1 (racemic) [Compound 63] |  |  |  | 5.46 | 6.9 | 6.94
13 | N#Cc1ccc(C(=O)Nc2ccc(F)c([C@@]3(C4CC4)N=C(N)CO[C@@]3(F)C(F)(F)F)c2)nc1 [Compound 262] | 0.0302 | 0.0741 | 0.0692 |  |  | 
14 | COc1cncc(-c2cccc([C@@]3(C)CO[C@@H](C)C(N)=N3)c2)c1 (racemic) [Compound 19, cis-rac-5-[3-(5-methoxypyridin-3-yl)phenyl]-2,5-dimethyl-5,6-dihydro-2H-1,4-oxazin-3-amine] |  |  |  | 5.38 | 6.352 | 6.29
15 | COc1cncc(-c2cccc(C3(C)N=C(N)COC3(F)C(F)(F)F)c2)c1 (single isomer, unassigned) [Compound 142] | > 30.2 |  |  |  | <5 | <5
16 | N#Cc1cnc(C(=O)Nc2cccc([C@@]3(C4CC4)N=C(N)CO[C@H]3C(F)(F)F)c2)c(Cl)c1 [Compound 291] | 0.0324 | 0.0049 | 0.00562 |  |  | 
